“And” between values parts separate entries of the source, which are not always exact repeats. Equal entries are not always repeated. Toxic doses and inconclusive results are not listed.
Tested on: B6C3F1 mice, ip Sarcoma M5076, median survival T/C
Test: NCI In Vivo Anticancer Drug Screen. Data for tumor model Sarcoma M5076 (intraperitoneal) in B6C3F1 mice
Conditions: endpoint: median survival time, higher = longer survival
Method: The antitumor activity of compounds was measured in mice bearing transplantable tumors. Survival or tumor size were measured and the results are expressed as the measurement made in the treated group (T) divided by the measurement made in the vehicle treated control group (C). The tumor model used in this assay is Sarcoma M5076 (intraperitoneal) in B6C3F1 mice

[1] = dose: 25.0 mg/kg/injection, schedule: Q04DX004 (ip), vehicle: suspension in saline
[2] = dose: 50.0 mg/kg/injection, schedule: Q04DX004 (ip), vehicle: suspension in saline
[3] = dose: 100.0 mg/kg/injection, schedule: Q04DX004 (ip), vehicle: suspension in saline
[4] = dose: 12.5 mg/kg/injection, schedule: Q04DX004 (ip), vehicle: saline with Tween-80
[5] = dose: 25.0 mg/kg/injection, schedule: Q04DX004 (ip), vehicle: saline with Tween-80
[6] = dose: 50.0 mg/kg/injection, schedule: Q04DX004 (ip), vehicle: saline with Tween-80
[7] = dose: 100.0 mg/kg/injection, schedule: Q04DX004 (ip), vehicle: saline with Tween-80
[8] = dose: 600.0 mg/kg/injection, schedule: Q04DX004 (ip), vehicle: saline with Tween-80

For COc1ccc(OC)c(Cc2cnc3nc(N)nc(N)c3c2C)c1, the T/C (dose: 25.0 mg/kg/injection, schedule: Q04DX004 (ip), vehicle: water) was 95 % of control and the T/C (dose: 50.0 mg/kg/injection, schedule: Q04DX004 (ip), vehicle: water) was 115 % of control.
C=C(C)/C([O-])=N/[N+](C)(C)CC(O)CCCCCCCCCCCC (stereo not given) was tested, and the T/C (dose: 12.5 mg/kg/injection, schedule: Q04DX004 (ip), vehicle: suspension in saline) was 97 % of control, the T/C [1] was 95 % of control and the T/C [2] was 100 % of control. For the same compound, the T/C [3] was 92 % of control.
In the case of O=C1C2CC3CC1CC(Cl)(C3)C2, the T/C [4] is reported as 105 % of control, the T/C [5] is reported as 99 % of control and the T/C [6] is reported as 94 % of control.
In the case of O=C(Nc1cccnc1)c1ccc([N+](=O)[O-])s1, the T/C (dose: 3.0 mg/kg/injection, schedule: Q04DX004 (ip), vehicle: saline) is reported as 102 % of control, the T/C (dose: 6.0 mg/kg/injection, schedule: Q04DX004 (ip), vehicle: saline) is reported as 97 % of control and the T/C (dose: 12.0 mg/kg/injection, schedule: Q04DX004 (ip), vehicle: saline) is reported as 96 % of control. For the same compound, the T/C (dose: 24.0 mg/kg/injection, schedule: Q04DX004 (ip), vehicle: saline) was 87 % of control and the T/C (dose: 48.0 mg/kg/injection, schedule: Q04DX004 (ip), vehicle: saline) was 89 % of control.
With Cc1c(-c2ccc(C3CCCCC3)cc2)nc2ccc(F)cc2c1C(=O)O the T/C (dose: 50.0 mg/kg/injection, schedule: Q04DX004 (ip), vehicle: Klucel (hydroxypropylcellulose) (HPC)) was 114 % of control and 121 % of control, the T/C (dose: 100.0 mg/kg/injection, schedule: Q04DX004 (ip), vehicle: Klucel (hydroxypropylcellulose) (HPC)) was 118 % of control and 122 % of control and the T/C (dose: 800.0 mg/kg/injection, schedule: Q04DX004 (ip), vehicle: Klucel (hydroxypropylcellulose) (HPC)) was 152 % of control.
With CC(=O)C1C(=O)C(=O)N(c2cc(C)ccc2O)C1=O (stereo not given) the T/C (dose: 50.0 mg/kg/injection, schedule: Q04DX004 (ip), vehicle: Klucel + Tween-80) was 106 % of control and the T/C (dose: 100.0 mg/kg/injection, schedule: Q04DX004 (ip), vehicle: Klucel + Tween-80) was 100 % of control.
COc1ccc(O)cc1 was tested, and the T/C [5] was 102 % of control, the T/C [6] was 98 % of control and the T/C [7] was 105 % of control. For the same compound, the T/C (dose: 200.0 mg/kg/injection, schedule: Q04DX004 (ip), vehicle: saline with Tween-80) was 113 % of control.
For N#CC(=C1C=CC(=NO)C=C1)c1ccc(Cl)cc1, the T/C [8] was 96 % of control.
For CS(=O)CCN=Cc1ccc(N=Nc2ccc(O)cc2)cc1 (stereo not given), the T/C (dose: 37.0 mg/kg/injection, schedule: Q04DX004 (ip), vehicle: saline with Tween-80) was 109 % of control, the T/C (dose: 75.0 mg/kg/injection, schedule: Q04DX004 (ip), vehicle: saline with Tween-80) was 90 % of control and the T/C (dose: 150.0 mg/kg/injection, schedule: Q04DX004 (ip), vehicle: saline with Tween-80) was 87 % of control. The T/C [8] was 87 % of control.
In the case of O=C1N[C@H]2[C@H](O)[C@H](O)[C@@H](O)[C@H](O)[C@@H]2c2cc3c(c(O)c21)OCO3, the T/C (dose: 1.5 mg/kg/injection, schedule: Q04DX004 (ip), vehicle: saline + alcohol) is reported as 115 % of control and 121 % of control, the T/C (dose: 3.0 mg/kg/injection, schedule: Q01DX009 (ip), vehicle: saline + alcohol) is reported as 162 % of control and 163 % of control and the T/C (dose: 6.0 mg/kg/injection, schedule: Q01DX009 (ip), vehicle: saline + alcohol) is reported as 177 % of control. For the same compound, the T/C (dose: 6.25 mg/kg/injection, schedule: Q01DX009 (ip), vehicle: saline + alcohol) was 152 % of control.
With CC(=O)NCCSSCc1ccccc1CS(=O)O the T/C [1] was 96 % of control, the T/C [2] was 100 % of control and the T/C [3] was 100 % of control. The T/C (dose: 200.0 mg/kg/injection, schedule: Q04DX004 (ip), vehicle: suspension in saline) was 101 % of control and the T/C (dose: 400.0 mg/kg/injection, schedule: Q04DX004 (ip), vehicle: suspension in saline) was 99 % of control.
With CSc1c(N(C)C)c(=O)c1=S the T/C [4] was 102 % of control, the T/C [5] was 103 % of control and the T/C [6] was 98 % of control. The T/C [7] was 93 % of control.
In the case of C/C=C\C1OC1(C)c1cc(=O)c2c(C)cc3c(c2o1)C(=O)c1c(O)c(C2CC(C)(N(C)C)C(OC(C)=O)C(C)O2)cc(C2CC(N(C)C)C(O)C(C)O2)c1C3=O (stereo not given), the T/C (dose: 0.19 mg/kg/injection, schedule: Q04DX004 (ip), vehicle: saline + alcohol) is reported as 105 % of control, the T/C (dose: 0.38 mg/kg/injection, schedule: Q04DX004 (ip), vehicle: saline + alcohol) is reported as 110 % of control and the T/C (dose: 0.75 mg/kg/injection, schedule: Q04DX004 (ip), vehicle: saline + alcohol) is reported as 120 % of control. The T/C (dose: 3.0 mg/kg/injection, schedule: Q04DX004 (ip), vehicle: saline + alcohol) was 156 % of control.
